Results from PubChem BioAssay (NCI).
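How tested: cells in 96-well plates exposed to compound for 48 hours at five concentrations. Here, GI50 denotes the concentration required for 50% inhibition of growth. TGI: concentration producing complete growth inhibition.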

Assays:
Test in all cases: DTP human tumour cell line panel, 48 h
[1] = tested on: OVCAR-3 ovarian
[2] = tested on: SF-268 CNS
[3] = tested on: ACHN renal
[4] = tested on: NCI/ADR-RES ovarian
[5] = tested on: A549 NSCLC
[6] = tested on: CAKI-1 renal
[7] = tested on: MDA-MB-435
[8] = tested on: CCRF-CEM leukemia
[9] = tested on: SN12C renal
[10] = tested on: HS 578T breast

| Compound | GI50 [1] | TGI [1] | GI50 [2] | TGI [2] | GI50 [3] | TGI [3] | GI50 [4] | TGI [4] | GI50 [5] | TGI [5] | GI50 [6] | TGI [6] | GI50 [7] | TGI [7] | GI50 [8] | TGI [8] | GI50 [9] | TGI [9] | GI50 [10] | TGI [10] |
| --- | --- | --- | --- | --- | --- | --- | --- | --- | --- | --- | --- | --- | --- | --- | --- | --- | --- | --- | --- | --- |
| COc1ccc(-c2oc(=O)ccc2-c2cc(OC)c(OC)c(OC)c2)cc1F | 5.84 µM | 71.9 µM | 33.6 µM | > 100 µM | 25.2 µM | > 100 µM | 11 µM | > 100 µM | 9.91 µM | > 100 µM | 9.64 µM | > 100 µM | 2.13 µM | 6.66 µM | 26.6 µM | > 100 µM | 38.1 µM | > 100 µM | 23.9 µM | > 100 µM |
| N#Cc1c(-c2ccc(F)cc2)c(-c2ccc(F)cc2)nn(CCO)c1=O |  | 0.69 µM |  | > 100 µM |  | > 81.1 µM |  | 22.5 µM |  | > 100 µM |  | > 100 µM |  | 0.608 µM |  | 24.9 µM |  | > 100 µM |  | 12.1 µM |
| Ic1ccc(-n2nnnc2-c2cnoc2-c2ccccc2)cc1 | 46.4 µM | > 100 µM | 54 µM | > 100 µM | > 61.1 µM | > 100 µM | 33 µM | > 85.2 µM | > 58.4 µM | > 100 µM | 37.9 µM | > 100 µM | 24.5 µM | > 57.5 µM | 1.21 µM | > 48.8 µM | 48.9 µM | > 88.3 µM | 42.7 µM | 98.4 µM |
| Cc1cn2c(/C=C3\C(=O)Nc4ccc(O)cc43)c(-c3ccc(Cl)cc3)nc2s1 | 16.9 µM | 38.3 µM | 15.2 µM | 54.5 µM | 17.8 µM | > 100 µM | 21.5 µM | > 100 µM | 19.1 µM | > 100 µM | 33.4 µM | 72.8 µM | 17.6 µM | 88.8 µM | 29.4 µM | > 100 µM | 10.4 µM | 25.5 µM | 21.1 µM | 84.1 µM |
| COc1c(OC)c(OC)c(C(=O)/C=C/c2ccccc2)c(OC)c1OC |  | 25.1 µM |  | 22.1 µM |  | 28.9 µM |  | 55.1 µM |  | 46.2 µM |  | 28.4 µM |  | 19.7 µM |  | 18.1 µM |  | 26.9 µM |  | > 100 µM |
| COc1cc(C2c3cc4c(cc3C(O)C(CO)C2CO)OCO4)cc(OC)c1OC (stereo not drawn) | 0.372 µM | 1.94 µM | 3.32 µM | > 100 µM | 8.09 µM | > 100 µM | 21.5 µM | > 100 µM | 1.64 µM | > 100 µM | 3.09 µM | > 46.2 µM | 0.197 µM | 0.549 µM | 0.787 µM | > 100 µM | 4.94 µM | > 100 µM | 0.623 µM |  |
| COc1ccc2[nH]cc(-c3nc(-c4c[nH]c5ncccc45)cs3)c2c1 | 6.04 µM | > 100 µM | 6.66 µM | > 100 µM | 2.85 µM | > 100 µM | 3.75 µM | > 100 µM | 3.4 µM | > 100 µM | 2.05 µM | > 100 µM | 5.87 µM | > 100 µM | 4.07 µM | > 100 µM | 4.96 µM | > 100 µM | 4.17 µM | > 100 µM |
| CCN(CC)CCOc1ccc(/C=C2\CC3C4CC=C5C[C@@H](O)CC[C@]5(C)C4CC[C@]3(C)C2=O)cc1OC (stereo partly drawn) | 1.71 µM | 9.04 µM | 7.39 µM | > 57.3 µM | 1.77 µM | 3.32 µM | 16.2 µM | 56.1 µM | 11.6 µM | 26.1 µM | 4.14 µM | 16.3 µM | 1.94 µM | 3.74 µM |  | > 22 µM | 3.54 µM | 19.4 µM | 5.62 µM | 33.7 µM |
| Oc1cc(O)c2c(c1)OC(c1ccc(O)c(O)c1)C(OC1(c3cc(O)c(O)c(O)c3)Oc3cc(O)cc(O)c3C(O)C1O)C2 (stereo not drawn) |  | > 80 µM |  | 66.2 µM |  | > 100 µM |  | 99.9 µM |  | > 71.7 µM |  | 81.1 µM |  | 37.6 µM |  | 43.7 µM |  | 46.2 µM |  | > 86.1 µM |
| N#C/C=C(\c1ccc([N+](=O)[O-])cc1)n1nnc2cc(Cl)c(Cl)cc21 | 1.88 µM | 3.91 µM | 3.58 µM | 33.5 µM | 1.63 µM | 3.16 µM | 2.54 µM | 8.79 µM | 3.45 µM | 13.6 µM | 1.37 µM | 2.91 µM | 1.75 µM | 3.7 µM | 2.31 µM | 29.4 µM | 2.08 µM | 5.4 µM | 2.39 µM | 8.94 µM |
| Cc1nc2cnc(N)c(C#Cc3cncc(C(=O)Nc4ccc(CN5CCN(C)CC5)c(C(F)(F)F)c4)c3)c2nc1C | 0.824 µM | 9.66 µM | 0.64 µM | 10.3 µM | 0.564 µM | 5.9 µM | 7.56 µM | 23.8 µM | 0.614 µM | 5.71 µM | 0.31 µM | 1.54 µM | 0.14 µM | 6 µM | 2.12 µM | 16.7 µM | 0.381 µM | 11.8 µM | 0.541 µM | 5.66 µM |
| Cc1nc2ccccc2nc1-c1ccc(N=[N+]([O-])c2ccc(-c3nc4ccccc4nc3C)cc2)cc1 |  | > 100 µM |  | > 100 µM |  | > 100 µM |  | > 100 µM |  | > 100 µM |  | > 100 µM |  | > 100 µM |  | > 100 µM |  | > 100 µM |  | > 95.9 µM |
| Nc1nc(N)c(N=Nc2ccc([As](=O)(O)O)cc2)c(=O)[nH]1 |  | > 100 µM |  | > 100 µM |  | > 100 µM |  | > 100 µM |  | > 100 µM |  | > 100 µM |  | > 100 µM |  | > 100 µM |  | > 100 µM |  | > 100 µM |
| Nc1nccc2c1ccn2-c1ccc(NC(=O)c2ccc(N3CCOCC3)c(C(F)(F)F)c2)cc1 | 1.38 µM | 15.7 µM | 0.879 µM | 15.1 µM | 0.928 µM | 16.3 µM | 4.87 µM | 50.9 µM | 1.39 µM | 15.3 µM | 0.484 µM | 3.45 µM | 0.69 µM | 2.99 µM | 0.452 µM | > 100 µM | 4.86 µM | 20.4 µM | 0.22 µM | 0.88 µM |
| CCN(CC)c1nc(-c2ccc(Cl)cc2Cl)nc2ccccc12 | 15.7 µM | 47.2 µM | 23.1 µM | > 68.8 µM | 15.8 µM | 50.4 µM | 23 µM | > 71.1 µM | 17.1 µM | 57.2 µM | 16.5 µM | 62.4 µM | 18.7 µM | 48.3 µM | 10.4 µM | > 100 µM | 17.2 µM | 46.2 µM | 8.82 µM | 35.1 µM |
| CCCNC(=S)/N=C/c1c(O)c2ccccc2[nH]c1=O |  | > 100 µM |  | > 100 µM |  | > 100 µM |  | > 100 µM |  | > 100 µM |  | > 100 µM |  | > 100 µM |  | > 100 µM |  | > 100 µM |  | > 100 µM |
| Cc1[nH]c2ccccc2c1-c1cc(-c2cc(-c3c(C)[nH]c4ccccc34)on2)no1 |  | > 100 µM |  | > 100 µM |  | > 100 µM |  | > 100 µM |  | > 100 µM |  | > 100 µM |  | 80.6 µM |  | > 100 µM |  | > 100 µM |  | 90.6 µM |
| NS(=O)(=O)c1ccc(N(/C=C/C(=O)C(F)(F)F)CC(=O)c2ccc(Cl)cc2)cc1 | 31.8 µM | > 100 µM | 34.5 µM | > 100 µM | 30.4 µM | 91.4 µM | 47.6 µM | > 100 µM | 49.7 µM | > 100 µM | 24.4 µM | 66 µM | > 100 µM | > 100 µM | 20.4 µM | 44.5 µM | 29.3 µM | > 100 µM | > 100 µM | > 100 µM |
| O=C(CC(O)(C(F)(F)F)C(F)(F)F)c1cc(CC(=O)C(O)(C(F)(F)F)C(F)(F)F)cc(CC(=O)C(O)(C(F)(F)F)C(F)(F)F)c1 |  | 3.52 µM |  | > 10 µM |  | > 6.02 µM |  | > 6.65 µM |  | 5.62 µM |  | 5.34 µM |  | > 4.25 µM |  | > 10 µM |  | 6.71 µM |  | > 10 µM |
| Nc1c(C(=O)Nc2cccc(Br)c2)sc2nc3c(cc12)C(=O)CCC3 | 0.359 µM | > 46.5 µM | 19.5 µM | > 100 µM | 15.7 µM | > 100 µM | 0.475 µM | > 100 µM | 0.5 µM | > 100 µM | 0.615 µM | > 100 µM | 0.0915 µM | 0.348 µM | 0.393 µM | > 100 µM | 0.779 µM | > 100 µM | 0.597 µM | 83.5 µM |
| C=CCc1cccc(/C=N/NC(=O)CN2CCN(Cc3ccccc3)CC2)c1O | 0.808 µM | 6.32 µM | 1.99 µM | 16.4 µM | 1.54 µM | 12 µM | 0.92 µM | 11.9 µM | 3.34 µM | 16.4 µM | 0.841 µM | 2.12 µM | 2.86 µM | 13.3 µM | 0.656 µM | 7.78 µM | 4.4 µM | 18.9 µM | 5.63 µM | 23.1 µM |
